# Assays:
# [1] = system: ovarian and breast cancer; conditions: cited from earlier work
# [2] = cited from earlier work
# [3] = system: TS; conditions: cited from earlier work
# [4] = biological target: T1, Thymidylate synthase isolated from L1210 murine leukemia cells (Mus musculus, UniProt P07607); experiment: inhibition of thymidylate synthase (tritium release assay); format: biochemical; conditions: 50 μ molar deoxyuridine, 100 μmolar 5,10-methylene-tetrahydrofolate
# T1 construct: endogenous in cells
# T1 sequence (P07607 whole entry): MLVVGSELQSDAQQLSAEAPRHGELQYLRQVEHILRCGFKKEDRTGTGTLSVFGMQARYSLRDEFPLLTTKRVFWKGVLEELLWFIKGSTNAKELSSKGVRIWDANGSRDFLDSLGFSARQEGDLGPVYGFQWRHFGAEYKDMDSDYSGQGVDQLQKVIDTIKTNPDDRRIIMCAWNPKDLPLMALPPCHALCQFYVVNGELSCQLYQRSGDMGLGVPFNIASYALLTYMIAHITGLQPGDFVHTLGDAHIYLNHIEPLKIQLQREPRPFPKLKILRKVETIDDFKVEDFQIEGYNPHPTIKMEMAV
# Description: The compounds of formula I are valuable anticancer agents. The tests employed indicate that compounds of formula I inhibit the enzyme thymidylate synthase. Thymidylate synthase catalyzes the methylation of deoxyuridine monophosphate to thymidine monophosphate and therefore plays a key role in the synthesis of the only nucleotide required exclusively for deoxyribonucleic acid (DNA) synthesis. […] Thus, the compounds of formula I were tested for their ability to inhibit thymidylate synthase. […] Inhibition of thymidylate synthetase by the new quinazoline antifolate CB3717: enzyme purification and kinetics. In: […]., Simmonds, H. A., Muller, M. M. (eds.) "Purine metabolism in man, IV part B. Biochemical, immunological and cancer research." Plenum Publishing Corp., New York, 1984, pp. 375-378. Thymidylate synthase enzyme activity was determined by the tritium release assay method described by Roberts, Biochemistry, 5:3546-3548 (1966).
# [5] = system: L1210 murine leukemia cell line; experiment: growth inhibition of L1210 murine leukemia cell line in vitro; format: cell-based; conditions: Mus musculus, L1210, 72 h
# Description: The compounds of formula I were also tested against the L1210 murine leukemia cell line in vitro.
# A cell culture of the L1210 murine leukemia cell line is grown in RPMI 1640 culture medium supplemented with 5% fetal bovine serum containing gentamicin (50 micrograms per milliliter). Dilutions of the test compound are prepared in the appropriate solvent and 20 microliters of each dilution are added to a 24-well Linbro tissue culture plate, followed by the addition of 2.0 ml of cell suspension containing 3×10^4 cells/milliliter. Solvent and medium controls are included in each test.
# After incubation at 37° C. for three days in 5% CO2, the contents of each well are removed and the cells are counted in a ZBI Coulter counter.
# [6] = system: cells made resistant to the classical DHFR inhibitor methotrexate; conditions: cited from earlier work
Structure (SMILES),IC50 [4],IC50 [5],also measured
"C#CCN(Cc1ccc2nc(N)nc(O)c2c1)c1ccc(C(=O)N[C@@H](CCC(=O)O)C(=O)O)cc1 [CB 3717, N-(4(N-((2-amino-4-hydroxy-6-quinazolinyl)methyl)prop-2-ynylamino)benzoyl)-L-glutamic acid]",–,–,"liver toxicity ([1]; Phase I clinical trials): nondose related liver toxicity; kidney toxicity ([1]; Phase I clinical trials, due in part to poor solubility): dose limiting kidney toxicity; clinical responses ([1]; Phase I, patients with ovarian and breast cancer): Minor and partial clinical responses; solubility [2]: poor solubility; TS inhibition (in words) ([3]; background): selective, tight binding TS inhibitor"
"C#CCN(Cc1ccc2nc[nH]c(=O)c2c1)c1ccc(C(C)=O)cc1 [Example 2, 6-[[(4-Acetylphenyl)-2-propynylamino]methyl]-4(3H)-quinazolinone]",2.4 µM,7 µM,–
"C#CCN(Cc1ccc2nc[nH]c(=O)c2c1)c1ccc(Cl)c(Cl)c1 [Example 2a, 6-[[(3,4-Dichlorophenyl)-2-propynylamino]methyl]-4(3H)-quinazolinone]",11 µM,4 µM,–
"C#CCN(Cc1ccc2nc[nH]c(=O)c2c1)c1cc(OC)c(OC)c(OC)c1 [Example 2c, 6-[[2-Propynyl-(3,4,5-trimethoxyphenyl)amino]methyl]-4(3H)-quinazolinone]",96 µM,> 10 µM,–
"C#CCN(Cc1ccc2nc(N)[nH]c(=O)c2c1)c1ccc(F)cc1 [Example 2f, 2-Amino-6-[[(4-fluorophenyl)-2-propynylamino]methyl]-4(3H)-quinazolinone]",11.5 µM,–,–
"C#CCN(Cc1ccc2nc(N)nc(O)c2c1)c1ccc(Cl)c(Cl)c1 [Example 2g, 2-Amino-6-[[(3,4-Dichlorophenyl)-2-propynylamino]methyl]-4(3H)-quinazolinone]",5 µM,12.6 µM,–
"C#CCN(Cc1ccc2nc(N)[nH]c(=O)c2c1)c1ccc(OC(F)(F)F)cc1 [Example 2h, 2-Amino-6-[[2-propynyl[4-(trifluoromethoxy)phenyl]amino]methyl]-4(3H)-quinazolinone]",11.3 µM,25.1 µM,–
"C#CCN(Cc1ccc2nc(N)nc(O)c2c1)c1cc(OC)c(OC)c(OC)c1 [Example 2l, 2-Amino-6-[[2-propynyl(3,4,5-trimethoxyphenyl)amino]methyl]-4(3H)-quinazolinone]",50 µM,> 20 µM,–
C#CCN(Cc1ccc2nc(N)[nH]c(=O)c2c1)c1ccc(C(=O)O)cc1 [formula A; R=OH],–,–,"decrease of TS inhibition over the classical antifolate analog on removal of the glutamate residue ([3]; Jones et al, J. Med. Chem. 29, 1114-1118 (1986)): 84 fold"
COc1cc(NCc2ccc3nc(N)nc(N)c3c2C)cc(OC)c1OC [trimetrexate],–,–,circumvention of impaired transport resistance [6]: shown to circumvent the impaired transport

# Continued, in another order:
IC50 [4],IC50 [5],Structure (SMILES),also measured
0.64 µM,> 20 µM,"C#CCN(Cc1ccc2nc(N)[nH]c(=O)c2c1)c1ccc(C(N)=O)cc1 [Example 2d, 4-[[(2-Amino-3,4-dihydro-4-oxo-6-quinazolinyl)methyl]-2-propynylamino]benzamide]",–
1.3 µM,5.9 µM,"C#CCN(Cc1ccc2nc(N)[nH]c(=O)c2c1)c1ccc(C#N)cc1 [Example 2e, 4-[[(2-Amino-3,4-dihydro-4-oxo-6-quinazolinyl)methyl]-2-propynylamino]benzonitrile]",–
0.62 µM,2.4 µM,"C#CCN(Cc1ccc2nc(N)[nH]c(=O)c2c1)c1ccc([N+](=O)[O-])cc1 [Example 2i, 2-Amino-6-[[(4-nitrophenyl)-2-propynylamino]methyl]-4(3H)-quinazolinone]",–
0.77 µM,4.3 µM,"C#CCN(Cc1ccc2nc(N)[nH]c(=O)c2c1)c1ccc(C(C)=O)cc1 [Example 2j, 6-[[(4-Acetylphenyl)-2-propynylamino]methyl]-2-amino-4(3H)-quinazolinone]",–
0.51 µM,11.8 µM,"C#CCN(Cc1ccc2nc(N)[nH]c(=O)c2c1)c1ccc(C(=O)C(F)(F)F)cc1 [Example 2k, 2-Amino-6-[[2-propynyl[4-(trifluoroacetyl)phenyl]amino]methyl]-4(3H)-quinazolinone]",–
1 µM,4.1 µM,"C#CCN(Cc1ccc2nc(N)[nH]c(=O)c2c1)c1ccc(S(=O)(=O)N(C)C)cc1 [Example 2n, 4-[[(2-Amino-3,4-dihydro-4-oxo-6-quinazolinyl)methyl]-2-propynylamino]-N,N-dimethylbenzenesulfonamide]",–
